Measurements taken from US20240279241A1, “PYRIDO[4,3-D]PYRIMIDINE COMPOUNDS CAPABLE OF INHIBITING KRAS MUTANT PROTEINS” (Redx Pharma PLC, priority 2021, published 2024).
Read-outs that look alike come from different tables or passages of the source.

Experiments:
Assay type in all cases: biochemical
KRAS G12D = molecular target: T1, KRAS G12D (Homo sapiens, UniProt P01116, G12D); assay: HTRF nucleotide exchange assay (NEA), KRAS G12D; settings: recombinant human KRAS G12D aa1-188, 2 nM; lowest class = % inhibition at 10 μM
T1 construct: Recombinant human RAS protein (2 nM)
T1 sequence (P01116 1-188 isoform P01116-2 G12D): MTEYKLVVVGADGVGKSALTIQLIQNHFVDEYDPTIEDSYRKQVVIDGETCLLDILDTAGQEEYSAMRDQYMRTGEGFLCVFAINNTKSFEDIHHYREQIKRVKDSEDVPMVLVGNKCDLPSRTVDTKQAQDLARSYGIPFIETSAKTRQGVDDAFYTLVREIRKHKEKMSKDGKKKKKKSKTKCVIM
Procedure: (§1) The capacity of compounds to bind KRAS G12D, other KRAS mutants and wildtype RAS isoforms was quantified using a HTRF nucleotide exchange assay. Recombinant human RAS protein (2 nM; aa1-188 KRAS WT, HRAS WT, NRAS WT, or KRAS containing the containing the G12D, G13D or Q61H amino acid substitutions, or 4 nM KRAS; aa1-188 containing the G12V, G12C, G12A or G12S amino acid substitution, an N-terminal 6×His-tag and leader sequence), and 2 nM Europium-labeled anti-6×His antibody were mixed in assay buffer (10 mM HEPES pH7.3, 150 mM NaCl, 5 mM MgCl2, 0.05% BSA, 0.0025% NP-40 and 100 mM KF) with various concentrations of compound in a 384-well plate and a volume of 5 uL. After a 60-minute incubation at room temperature, 5 ul of 200 nM EDA-GTP-DY647P1 (diluted in assay buffer) was added to the plate. Following 30-minute incubation at room temperature, time-resolved fluorescence was measured on a PerkinElmer Envision plate reader. DMSO (0.3%) and unlabeled […] (1 μM) or equivalent tool compound were used to generate the Max and Min assay signals, respectively. Data was analysed using a four-parameter logistic model to calculate IC50 values, with at least two independent replicates were performed for each compound.

KRAS WT = molecular target: T2, KRAS WT (Homo sapiens, UniProt P01116); assay: HTRF nucleotide exchange assay (NEA), KRAS WT
T2 construct: Recombinant human RAS protein (2 nM); aa1-188 KRAS WT
T2 sequence (P01116 1-188 isoform P01116-2): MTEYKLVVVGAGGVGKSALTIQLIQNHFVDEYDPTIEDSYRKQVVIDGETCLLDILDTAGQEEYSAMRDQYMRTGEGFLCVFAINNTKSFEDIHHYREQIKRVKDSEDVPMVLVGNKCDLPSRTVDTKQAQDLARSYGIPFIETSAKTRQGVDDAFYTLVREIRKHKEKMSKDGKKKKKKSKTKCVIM
Procedure: as §1

KRAS G12C = molecular target: T3, KRAS G12C (Homo sapiens, UniProt P01116, G12C); assay: HTRF nucleotide exchange assay (NEA), KRAS G12C
T3 construct: 4 nM KRAS; aa1-188 containing the G12V, G12C, G12A or G12S amino acid substitution
T3 sequence (P01116 1-188 isoform P01116-2 G12C): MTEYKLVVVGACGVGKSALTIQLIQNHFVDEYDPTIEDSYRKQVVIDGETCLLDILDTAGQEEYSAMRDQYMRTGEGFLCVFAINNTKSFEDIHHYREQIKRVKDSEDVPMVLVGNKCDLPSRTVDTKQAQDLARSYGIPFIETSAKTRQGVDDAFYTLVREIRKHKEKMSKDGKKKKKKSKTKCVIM
Procedure: as §1

KRAS G12V = molecular target: T4, KRAS G12V (Homo sapiens, UniProt P01116, G12V); assay: HTRF nucleotide exchange assay (NEA), KRAS G12V
T4 construct: 4 nM KRAS; aa1-188 containing the G12V, G12C, G12A or G12S amino acid substitution
T4 sequence (P01116 1-188 isoform P01116-2 G12V): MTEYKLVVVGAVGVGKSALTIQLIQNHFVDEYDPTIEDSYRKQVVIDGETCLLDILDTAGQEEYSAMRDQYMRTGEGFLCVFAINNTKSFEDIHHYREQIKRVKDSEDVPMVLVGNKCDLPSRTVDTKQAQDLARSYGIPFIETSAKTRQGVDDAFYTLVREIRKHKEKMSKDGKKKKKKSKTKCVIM
Procedure: as §1

KRAS G12S = molecular target: T5, KRAS G12S (Homo sapiens, UniProt P01116, G12S); assay: HTRF nucleotide exchange assay (NEA), KRAS G12S
T5 construct: 4 nM KRAS; aa1-188 containing the G12V, G12C, G12A or G12S amino acid substitution
T5 sequence (P01116 1-188 isoform P01116-2 G12S): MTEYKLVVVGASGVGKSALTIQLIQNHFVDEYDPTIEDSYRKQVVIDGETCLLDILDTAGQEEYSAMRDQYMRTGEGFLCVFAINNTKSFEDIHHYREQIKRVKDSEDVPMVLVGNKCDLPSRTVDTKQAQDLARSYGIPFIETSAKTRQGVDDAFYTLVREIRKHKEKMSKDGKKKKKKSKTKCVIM
Procedure: as §1

KRAS G12A = molecular target: T6, KRAS G12A (Homo sapiens, UniProt P01116, G12A); assay: HTRF nucleotide exchange assay (NEA), KRAS G12A
T6 construct: 4 nM KRAS; aa1-188 containing the G12V, G12C, G12A or G12S amino acid substitution
T6 sequence (P01116 1-188 isoform P01116-2 G12A): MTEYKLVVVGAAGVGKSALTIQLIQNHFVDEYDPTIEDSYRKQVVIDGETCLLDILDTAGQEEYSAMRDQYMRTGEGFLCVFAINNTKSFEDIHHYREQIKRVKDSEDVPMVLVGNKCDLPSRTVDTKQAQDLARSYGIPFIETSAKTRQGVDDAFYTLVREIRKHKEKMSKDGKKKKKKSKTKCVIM
Procedure: as §1

Measured: IC50

C#Cc1c(F)ccc2cc(O)cc(-c3ncc4c(N5CCCNC(=O)C5)nc(OC[C@@]56CCCN5C[C@H](F)C6)nc4c3F)c12 (relative stereo) [Example 88, 4-[7-(8-ethynyl-7-fluoro-3-hydroxy-1-naphthyl)-8-fluoro-2-[[trans-2-fluoro-1,2,3,5,6,7-hexahydropyrrolizin-8-yl]methoxy]pyrido [4,3-d]pyrimidin-4-yl]-1,4-diazepan-2-one]
≤ 0.01 µM: KRAS G12D | KRAS WT | KRAS G12C | KRAS G12V | KRAS G12S | KRAS G12A

Oc1cc(-c2ncc3c(N4CC5CCC(C4)O5)nc(OCC45CCCN4CCC5)nc3c2F)c2ccccc2c1 [Example 7, 4-[8-fluoro-2-(1,2,3,5,6,7-hexahydropyrrolizin-8-ylmethoxy)-4-(8-oxa-3-azabicyclo[3.2.1]octan-3-yl)pyrido[4,3-d]pyrimidin-7-yl]naphthalen-2-ol]
0.1 to 10 µM: KRAS G12D | KRAS WT | KRAS G12C | KRAS G12V

COCCCNc1nc(OCC23CCCN2CCC3)nc2c(F)c(-c3cc(O)cc4ccccc34)ncc12 [Example 11, 4-[8-fluoro-2-(1,2,3,5,6,7-hexahydropyrrolizin-8-ylmethoxy)-4-(3-methoxypropylamino)pyrido[4,3-d]pyrimidin-7-yl]naphthalen-2-ol]
0.1 to 10 µM: KRAS WT | KRAS G12C | KRAS G12V
0.01 to 0.1 µM: KRAS G12D

CC1CN(c2nc(OCC34CCCN3CCC4)nc3c(F)c(-c4cc(O)cc5ccccc45)ncc23)CCCO1 (centres unmarked) [Example 16, 4-[8-fluoro-2-(1,2,3,5,6,7-hexahydropyrrolizin-8-ylmethoxy)-4-(2-methyl-1,4-oxazepan-4-yl)pyrido[4,3-d]pyrimidin-7-yl]naphthalen-2-ol]
0.01 to 0.1 µM: KRAS G12D | KRAS WT | KRAS G12C | KRAS G12V | KRAS G12A
0.1 to 10 µM: KRAS G12S

COCC1(CNc2nc(OCC34CCCN3CCC4)nc3c(F)c(-c4cc(O)cc5ccccc45)ncc23)COC1 [Example 45, 4-[8-fluoro-2-(1,2,3,5,6,7-hexahydropyrrolizin-8-ylmethoxy)-4-[[3-(methoxymethyl)oxetan-3-yl]methylamino]pyrido [4,3-d]pyrimidin-7-yl]naphthalen-2-ol]
0.1 to 10 µM: KRAS G12D | KRAS WT | KRAS G12C | KRAS G12V | KRAS G12S

CS(=O)(=O)CCCNc1nc(OCC23CCCN2CCC3)nc2c(F)c(-c3cc(O)cc4ccccc34)ncc12 [Example 46, 4-[8-fluoro-2-(1,2,3,5,6,7-hexahydropyrrolizin-8-ylmethoxy)-4-(3-methylsulfonylpropylamino)pyrido[4,3-d]pyrimidin-7-yl]naphthalen-2-ol]
0.1 to 10 µM: KRAS G12D | KRAS WT | KRAS G12S

Oc1cc(-c2ncc3c(N4CCC5COCC5C4)nc(OCC45CCCN4CCC5)nc3c2F)c2ccccc2c1 (centres unmarked) [Example 51, 4-[4-(3,3a,4,6,7,7a-hexahydro-1H-furo[3,4-c]pyridin-5-yl)-8-fluoro-2-(1,2,3,5,6,7-hexahydropyrrolizin-8-ylmethoxy)pyrido [4,3-d]pyrimidin-7-yl]naphthalen-2-ol]
0.1 to 10 µM: KRAS G12D | KRAS WT | KRAS G12C | KRAS G12V

O=C1CCN(c2nc(OCC34CCCN3CCC4)nc3c(F)c(-c4cc(O)cc5ccccc45)ncc23)CCO1 [Example 72, 4-[8-fluoro-2-(1,2,3,5,6,7-hexahydropyrrolizin-8-ylmethoxy)-7-(3-hydroxy-1-naphthyl)pyrido[4,3-d]pyrimidin-4-yl]-1,4-oxazepan-7-one]
0.1 to 10 µM: KRAS G12D | KRAS WT | KRAS G12C | KRAS G12V

OCC1CCN(c2nc(OCC34CCCN3CCC4)nc3c(F)c(-c4cc(O)cc5ccccc45)ncc23)C1 (centres unmarked) [Example 73, 4-[8-fluoro-2-(1,2,3,5,6,7-hexahydropyrrolizin-8-ylmethoxy)-4-[3-(hydroxymethyl)pyrrolidin-1-yl]pyrido[4,3-d]pyrimidin-7-yl]naphthalen-2-ol]
0.1 to 10 µM: KRAS G12D | KRAS WT | KRAS G12C | KRAS G12V

CC(C)(O)C1CCN(c2nc(OCC34CCCN3CCC4)nc3c(F)c(-c4cc(O)cc5ccccc45)ncc23)C1 (centres unmarked) [Example 74, 4-[8-fluoro-2-(1,2,3,5,6,7-hexahydropyrrolizin-8-ylmethoxy)-4-[3-(1-hydroxy-1-methyl-ethyl)pyrrolidin-1-yl]pyrido[4,3-d]pyrimidin-7-yl]naphthalen-2-ol]
> 10 µM: KRAS G12D | KRAS G12C; recombinant human KRAS G12C aa1-188, 4 nM, lowest class = % inhibition at 10 μM | KRAS G12V; recombinant human KRAS G12V aa1-188, 4 nM, lowest class = % inhibition at 10 μM
0.1 to 10 µM: KRAS WT

CN1CCCN(c2nc(OCC34CCCN3CCC4)nc3c(F)c(-c4cc(O)cc5ccccc45)ncc23)CC1=O [Example 75, 4-[8-fluoro-2-(1,2,3,5,6,7-hexahydropyrrolizin-8-ylmethoxy)-7-(3-hydroxy-1-naphthyl)pyrido[4,3-d]pyrimidin-4-yl]-1-methyl-1,4-diazepan-2-one]
0.1 to 10 µM: KRAS G12D | KRAS WT | KRAS G12C | KRAS G12V

O=C1CC2(CCN(c3nc(OCC45CCCN4CCC5)nc4c(F)c(-c5cc(O)cc6ccccc56)ncc34)C2)CN1 (centres unmarked) [Example 76, 2-[8-fluoro-2-(1,2,3,5,6,7-hexahydropyrrolizin-8-ylmethoxy)-7-(3-hydroxy-1-naphthyl)pyrido[4,3-d]pyrimidin-4-yl]-2,7-diazaspiro[4.4] nonan-8-one]
0.1 to 10 µM: KRAS WT | KRAS G12C | KRAS G12V
> 10 µM: KRAS G12D

O=C1NCCC12CCN(c1nc(OCC34CCCN3CCC4)nc3c(F)c(-c4cc(O)cc5ccccc45)ncc13)CC2 [Example 77, 8-[8-fluoro-2-(1,2,3,5,6,7-hexahydropyrrolizin-8-ylmethoxy)-7-(3-hydroxy-1-naphthyl)pyrido[4,3-d]pyrimidin-4-yl]-2,8-diazaspiro[4.5]decan-1-one]
0.1 to 10 µM: KRAS G12D | KRAS WT | KRAS G12C | KRAS G12V

CN1CCN(c2nc(OCC34CCCN3CCC4)nc3c(F)c(-c4cc(O)cc5ccccc45)ncc23)CCC1=O [Example 78, 1-[8-fluoro-2-(1,2,3,5,6,7-hexahydropyrrolizin-8-ylmethoxy)-7-(3-hydroxy-1-naphthyl)pyrido[4,3-d]pyrimidin-4-yl]-4-methyl-1,4-diazepan-5-one]
0.1 to 10 µM: KRAS G12D | KRAS WT | KRAS G12C | KRAS G12V

OCC1CCN(c2nc(OCC34CCCN3CCC4)nc3c(F)c(-c4cc(O)cc5ccccc45)ncc23)CC1 [Example 79, 4-[8-fluoro-2-(1,2,3,5,6,7-hexahydropyrrolizin-8-ylmethoxy)-4-[4-(hydroxymethyl)-1-piperidyl]pyrido[4,3-d]pyrimidin-7-yl]naphthalen-2-ol]
0.01 to 0.1 µM: KRAS G12D | KRAS WT | KRAS G12C | KRAS G12V

O=C1CC2(CCN(c3nc(OCC45CCCN4CCC5)nc4c(F)c(-c5cc(O)cc6ccccc56)ncc34)CC2)CN1 [Example 81, 8-[8-fluoro-2-(1,2,3,5,6,7-hexahydropyrrolizin-8-ylmethoxy)-7-(3-hydroxy-1-naphthyl)pyrido[4,3-d]pyrimidin-4-yl]-2,8-diazaspiro[4.5]decan-3-one]
0.1 to 10 µM: KRAS G12D | KRAS WT | KRAS G12C
0.01 to 0.1 µM: KRAS G12V

O=C1NCc2ccc(Nc3nc(OCC45CCCN4CCC5)nc4c(F)c(-c5cc(O)cc6ccccc56)ncc34)cc21 [Example 82, 6-[[8-fluoro-2-(1,2,3,5,6,7-hexahydropyrrolizin-8-ylmethoxy)-7-(3-hydroxy-1-naphthyl)pyrido[4,3-d]pyrimidin-4-yl]amino]isoindolin-1-one]
0.01 to 0.1 µM: KRAS G12V
0.1 to 10 µM: KRAS G12D | KRAS WT | KRAS G12C

Nc1cc2ccccc2c(-c2ncc3c(N4CCCOCC4)nc(OCC45CCCN4CCC5)nc3c2F)n1 [Example 91, 1-[8-fluoro-2-(1,2,3,5,6,7-hexahydropyrrolizin-8-ylmethoxy)-4-(1,4-oxazepan-4-yl)pyrido[4,3-d]pyrimidin-7-yl]isoquinolin-3-amine]
0.1 to 10 µM: KRAS G12D | KRAS WT | KRAS G12C | KRAS G12V

CN(C)CC1(COc2nc(N3CCCOCC3)c3cnc(-c4cc(O)cc5ccccc45)c(F)c3n2)CC1 [Example 96, 4-[2-[[1-[(dimethylamino)methyl]cyclopropyl]methoxy]-8-fluoro-4-(1,4-oxazepan-4-yl)pyrido[4,3-d]pyrimidin-7-yl]naphthalen-2-ol]
0.01 to 0.1 µM: KRAS G12D | KRAS WT | KRAS G12C | KRAS G12V
